From the supplement of paper PMC10307832

What was measured:
Test in all cases: relative viability (nuclei count vs DMSO), 5 days (fraction); higher = more cells survive
Docetaxel = compound: CC(=O)O[C@@]12CO[C@@H]1C[C@H](O)[C@@]1(C)C(=O)[C@H](O)C3=C(C)[C@@H](OC(=O)[C@H](O)[C@@H](NC(=O)OC(C)(C)C)c4ccccc4)C[C@@](O)([C@@H](OC(=O)c4ccccc4)[C@H]21)C3(C)C [Docetaxel]
Procedure, shortened: (§1)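 For viability, nuclei in each treated well were divided by nuclei in vehicle wells and the median across plates was taken. Lung cancer cell lines in 1536-well plates were pinned with five library-drug doses (not always all listed) spaced by √10, cultured 5 days without medium change, and imaged at 4× after Hoechst staining, with plates passing only at control CV below 25% and at least one doubling.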

Tivozanib = compound: COc1cc2nccc(Oc3ccc(NC(=O)Nc4cc(C)on4)c(Cl)c3)c2cc1OC [Tivozanib]
Procedure, shortened: as §1

[1] = compound: Cc1cnc(-c2cnc(NCCNc3ccc(C#N)cn3)nc2-c2ccc(Cl)cc2Cl)[nH]1
Procedure, shortened: as §1

JQ1 = compound: Cc1sc2c(c1C)C(c1ccc(Cl)cc1)=N[C@@H](CC(=O)OC(C)(C)C)c1nnc(C)n1-2 [JQ1]
Procedure, shortened: as §1

Cytarabine = compound: Nc1ccn([C@@H]2O[C@H](CO)[C@@H](O)[C@@H]2O)c(=O)n1 [Cytarabine]
Procedure, shortened: as §1

CPI-613 = compound: O=C(O)CCCCC(CCSCc1ccccc1)SCc1ccccc1 [CPI-613]
Procedure, shortened: as §1

Pimozide = compound: O=c1[nH]c2ccccc2n1C1CCN(CCCC(c2ccc(F)cc2)c2ccc(F)cc2)CC1 [Pimozide]
Procedure, shortened: as §1

Cell Line | relative viability (Docetaxel; 0.0002 µM) | relative viability (Docetaxel; 0.000632 µM) | relative viability (Docetaxel; 0.002 µM) | relative viability (Docetaxel; 0.006325 µM) | relative viability (Docetaxel; 0.02 µM) | relative viability (Tivozanib; 0.005 µM) | relative viability (Tivozanib; 0.01581 µM) | relative viability (Tivozanib; 0.05 µM) | relative viability (Tivozanib; 0.1581 µM) | relative viability (Tivozanib; 0.5 µM) | relative viability ([1]; 0.08 µM) | relative viability ([1]; 0.253 µM) | relative viability ([1]; 0.8 µM) | relative viability ([1]; 2.53 µM) | relative viability (JQ1; 0.04 µM) | relative viability (JQ1; 0.1265 µM) | relative viability (JQ1; 0.4 µM) | relative viability (JQ1; 1.265 µM) | relative viability (JQ1; 4 µM) | relative viability (Cytarabine; 0.005 µM) | relative viability (Cytarabine; 0.01581 µM) | relative viability (Cytarabine; 0.05 µM) | relative viability (Cytarabine; 0.1581 µM) | relative viability (Cytarabine; 0.5 µM) | relative viability (CPI-613; 5 µM) | relative viability (CPI-613; 15.81 µM) | relative viability (CPI-613; 50 µM) | relative viability (CPI-613; 158.11 µM) | relative viability (CPI-613; 500 µM) | relative viability (Pimozide; 0.08 µM) | relative viability (Pimozide; 0.253 µM) | relative viability (Pimozide; 0.8 µM) | relative viability (Pimozide; 2.53 µM) | relative viability (Pimozide; 8 µM)
NCI-H1623 | 0.889 | 0.957 | 0.601 | 0.424 | 0.264 | 1.05 | 0.986 | 1.03 | 0.714 | 0.986 | 1.06 | 0.957 | 0.921 | 0.947 | 0.961 | 0.82 | 0.908 | 0.557 | 0.54 | 0.828 | 0.592 | 0.41 | 0.25 | 0.216 | 1.07 | 0.99 | 1.13 | 0.743 | 0.867 | 0.675 | 0.916 | 0.902 | 0.939 | 0.932
LK-2 | 0.921 | 0.771 | 0.27 | 0.208 | 0.144 | 1.05 | 0.962 | 0.937 | 0.834 | 0.784 | 1.14 | 0.941 | 0.995 | 1.15 | 0.942 | 0.907 | 0.497 | 0.236 | 0.218 | 0.797 | 0.604 | 0.414 | 0.259 | 0.212 | 0.943 | 0.953 | 1.16 | 1 | 0.929 | 0.965 | 0.93 | 0.843 | 0.808 | 1.06
CAL-12T | 0.791 | 0.418 | 0.302 | 0.21 | 0.178 | 0.857 | 0.941 | 0.994 | 0.698 | 0.959 | 1.03 | 0.933 | 0.899 | 0.927 | 0.867 | 0.818 | 0.798 | 0.321 | 0.293 | 0.983 | 0.909 | 0.789 | 0.397 | 0.255 | 0.877 | 0.829 | 0.822 | 0.423 | 0.235 | 0.951 | 0.936 | 0.909 | 0.867 | 0.832
HCC-366 | 0.946 | 0.631 | 0.14 | 0.0335 | 0.03 | 0.982 | 0.98 | 1.02 | 1.02 | 0.992 | 1.04 | 0.928 | 0.968 | 0.925 | 1.05 | – | 1.08 | 0.693 | 0.325 | 1.01 | 0.974 | 0.884 | 0.337 | 0.11 | 1.02 | 1.04 | 1.09 | 0.413 | 0.0138 | 0.978 | 1.01 | 0.967 | 0.992 | 0.972
